PubChem BioAssay (NCI)
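Briefly, cells in 96-well plates were exposed to five compound concentrations for 48 h, and endpoints were estimated by linear interpolation. Abbreviation: GI50, concentration required for 50% inhibition of growth. TGI marks complete inhibition of growth.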

Assays:
Assay in all cases: NCI anticancer screen, dose series, 48 h
786-0 renal = tested on: 786-0 renal
A498 renal = tested on: A498 renal
A549 NSCLC = tested on: A549 NSCLC
ACHN renal = tested on: ACHN renal
BT-549 breast = tested on: BT-549 breast
CCRF-CEM leukemia = tested on: CCRF-CEM leukemia
COLO 205 colon = tested on: COLO 205 colon
DU-145 prostate = tested on: DU-145 prostate
HCC-2998 colon = tested on: HCC-2998 colon
HCT-116 colon = tested on: HCT-116 colon
HCT-15 colon = tested on: HCT-15 colon
HL-60(TB) leukemia = tested on: HL-60(TB) leukemia
HOP-62 NSCLC = tested on: HOP-62 NSCLC
HOP-92 NSCLC = tested on: HOP-92 NSCLC
HS 578T breast = tested on: HS 578T breast
HT29 colon = tested on: HT29 colon
IGROV1 ovarian = tested on: IGROV1 ovarian
K-562 leukemia = tested on: K-562 leukemia
KM12 colon = tested on: KM12 colon
LOX IMVI melanoma = tested on: LOX IMVI melanoma
M14 melanoma = tested on: M14 melanoma
MALME-3M melanoma = tested on: MALME-3M melanoma
MCF7 breast = tested on: MCF7 breast
MDA-MB-231 breast = tested on: MDA-MB-231 breast
MDA-MB-435 = tested on: MDA-MB-435
MOLT-4 leukemia = tested on: MOLT-4 leukemia
NCI-H226 lung = tested on: NCI-H226 lung
NCI-H23 lung = tested on: NCI-H23 lung
NCI-H460 lung = tested on: NCI-H460 lung
NCI-H522 lung = tested on: NCI-H522 lung
NCI/ADR-RES ovarian = tested on: NCI/ADR-RES ovarian
OVCAR-3 ovarian = tested on: OVCAR-3 ovarian
OVCAR-4 ovarian = tested on: OVCAR-4 ovarian
OVCAR-5 ovarian = tested on: OVCAR-5 ovarian
OVCAR-8 ovarian = tested on: OVCAR-8 ovarian
PC-3 prostate = tested on: PC-3 prostate
RPMI-8226 leukemia = tested on: RPMI-8226 leukemia
RXF 393 renal = tested on: RXF 393 renal
SF-268 CNS = tested on: SF-268 CNS
SF-295 CNS = tested on: SF-295 CNS
SF-539 CNS = tested on: SF-539 CNS
SK-MEL-2 melanoma = tested on: SK-MEL-2 melanoma
SK-MEL-28 melanoma = tested on: SK-MEL-28 melanoma
SK-MEL-5 melanoma = tested on: SK-MEL-5 melanoma
SK-OV-3 ovarian = tested on: SK-OV-3 ovarian
SN12C renal = tested on: SN12C renal
SNB-19 CNS = tested on: SNB-19 CNS
SR leukemia = tested on: SR leukemia
SW-620 colon = tested on: SW-620 colon
T-47D breast = tested on: T-47D breast
TK-10 renal = tested on: TK-10 renal
U251 CNS = tested on: U251 CNS
UACC-257 melanoma = tested on: UACC-257 melanoma
UACC-62 melanoma = tested on: UACC-62 melanoma
UO-31 renal = tested on: UO-31 renal
CAKI-1 renal = tested on: CAKI-1 renal
EKVX NSCLC = tested on: EKVX NSCLC
SNB-75 CNS = tested on: SNB-75 CNS

Structure (SMILES): COc1cc(-c2cc(/C=C/C(=O)c3ccc(N)cc3)[nH]n2)cc(OC)c1OC
- GI50 (786-0 renal): 2.04 µM
- TGI (786-0 renal): 6.49 µM
- GI50 (A498 renal): 1.64 µM
- TGI (A498 renal): 4.33 µM
- GI50 (A549 NSCLC): 2.08 µM
- TGI (A549 NSCLC): 7.02 µM
- GI50 (ACHN renal): 1.61 µM
- TGI (ACHN renal): 3.67 µM
- GI50 (BT-549 breast): 1.38 µM
- TGI (BT-549 breast): 2.82 µM
- GI50 (CCRF-CEM leukemia): 0.556 µM
- TGI (CCRF-CEM leukemia): 4.17 µM
- GI50 (COLO 205 colon): 1.74 µM
- TGI (COLO 205 colon): 3.34 µM
- GI50 (DU-145 prostate): 1.65 µM
- TGI (DU-145 prostate): 4.05 µM
- GI50 (HCC-2998 colon): 2.01 µM
- TGI (HCC-2998 colon): 3.63 µM
- GI50 (HCT-116 colon): 1.1 µM
- TGI (HCT-116 colon): 2.61 µM
- GI50 (HCT-15 colon): 1.37 µM
- TGI (HCT-15 colon): 6.76 µM
- GI50 (HL-60(TB) leukemia): 1.74 µM
- TGI (HL-60(TB) leukemia): 10.8 µM
- GI50 (HOP-62 NSCLC): 1.77 µM
- TGI (HOP-62 NSCLC): 3.92 µM
- GI50 (HOP-92 NSCLC): 3.68 µM
- TGI (HOP-92 NSCLC): 27.6 µM
- GI50 (HS 578T breast): 4.33 µM
- TGI (HS 578T breast): > 100 µM
- GI50 (HT29 colon): 1.85 µM
- TGI (HT29 colon): 4.82 µM
- GI50 (IGROV1 ovarian): 3.2 µM
- TGI (IGROV1 ovarian): 10.5 µM
- GI50 (K-562 leukemia): 0.726 µM
- TGI (K-562 leukemia): 23.6 µM
- GI50 (KM12 colon): 1.14 µM
- TGI (KM12 colon): 2.88 µM
- GI50 (LOX IMVI melanoma): 1.6 µM
- TGI (LOX IMVI melanoma): 3.28 µM
- GI50 (M14 melanoma): 1.83 µM
- TGI (M14 melanoma): 3.86 µM
- GI50 (MALME-3M melanoma): 2.05 µM
- TGI (MALME-3M melanoma): 4.71 µM
- GI50 (MCF7 breast): 1.5 µM
- TGI (MCF7 breast): 5.42 µM
- GI50 (MDA-MB-231 breast): 2.06 µM
- TGI (MDA-MB-231 breast): 12.2 µM
- GI50 (MDA-MB-435): 1.66 µM
- TGI (MDA-MB-435): 3.21 µM
- GI50 (MOLT-4 leukemia): 1.91 µM
- TGI (MOLT-4 leukemia): 8.51 µM
- GI50 (NCI-H226 lung): 1.71 µM
- TGI (NCI-H226 lung): 3.51 µM
- GI50 (NCI-H23 lung): 2.48 µM
- TGI (NCI-H23 lung): 6.79 µM
- GI50 (NCI-H460 lung): 1.8 µM
- TGI (NCI-H460 lung): 5.1 µM
- GI50 (NCI-H522 lung): 1.62 µM
- TGI (NCI-H522 lung): 3.99 µM
- GI50 (NCI/ADR-RES ovarian): 3.8 µM
- TGI (NCI/ADR-RES ovarian): 65.8 µM
- GI50 (OVCAR-3 ovarian): 1.57 µM
- TGI (OVCAR-3 ovarian): 3.37 µM
- GI50 (OVCAR-4 ovarian): 1.4 µM
- TGI (OVCAR-4 ovarian): 5.44 µM
- GI50 (OVCAR-5 ovarian): 1.78 µM
- TGI (OVCAR-5 ovarian): 3.75 µM
- GI50 (OVCAR-8 ovarian): 2.39 µM
- TGI (OVCAR-8 ovarian): 9.76 µM
- GI50 (PC-3 prostate): 2.21 µM
- TGI (PC-3 prostate): 10.4 µM
- GI50 (RPMI-8226 leukemia): 0.479 µM
- TGI (RPMI-8226 leukemia): 2.77 µM
- GI50 (RXF 393 renal): 1.35 µM
- TGI (RXF 393 renal): 3.24 µM
- GI50 (SF-268 CNS): 1.69 µM
- TGI (SF-268 CNS): 3.93 µM
- GI50 (SF-295 CNS): 2.55 µM
- TGI (SF-295 CNS): 10.9 µM
- GI50 (SF-539 CNS): 1.3 µM
- TGI (SF-539 CNS): 2.66 µM
- GI50 (SK-MEL-2 melanoma): 2.85 µM
- TGI (SK-MEL-2 melanoma): 7.53 µM
- GI50 (SK-MEL-28 melanoma): 1.86 µM
- TGI (SK-MEL-28 melanoma): 4.08 µM
- GI50 (SK-MEL-5 melanoma): 1.65 µM
- TGI (SK-MEL-5 melanoma): 3.06 µM
- GI50 (SK-OV-3 ovarian): 2.99 µM
- TGI (SK-OV-3 ovarian): 8.32 µM
- GI50 (SN12C renal): 1.86 µM
- TGI (SN12C renal): 4.52 µM
- GI50 (SNB-19 CNS): 2.34 µM
- TGI (SNB-19 CNS): 9.98 µM
- GI50 (SR leukemia): 0.326 µM
- TGI (SR leukemia): 2.75 µM
- GI50 (SW-620 colon): 2.05 µM
- TGI (SW-620 colon): 6.37 µM
- GI50 (T-47D breast): 1.42 µM
- TGI (T-47D breast): 4.3 µM
- GI50 (TK-10 renal): 4.84 µM
- TGI (TK-10 renal): 17.5 µM
- GI50 (U251 CNS): 1.42 µM
- TGI (U251 CNS): 2.77 µM
- GI50 (UACC-257 melanoma): 1.87 µM
- TGI (UACC-257 melanoma): 4.02 µM
- GI50 (UACC-62 melanoma): 1.7 µM
- TGI (UACC-62 melanoma): 3.58 µM
- GI50 (UO-31 renal): 1.36 µM
- TGI (UO-31 renal): 2.86 µM

Structure (SMILES): CC1=NN(c2nc(N)nc(COCc3nc(N)nc(N4N=C(C)CC4(C)C)n3)n2)C(C)(C)C1
- TGI (786-0 renal): > 100 µM
- TGI (A498 renal): > 100 µM
- TGI (A549 NSCLC): > 100 µM
- TGI (ACHN renal): > 100 µM
- TGI (BT-549 breast): > 100 µM
- TGI (CAKI-1 renal): > 100 µM
- TGI (CCRF-CEM leukemia): > 100 µM
- TGI (COLO 205 colon): > 100 µM
- TGI (DU-145 prostate): > 100 µM
- TGI (EKVX NSCLC): > 100 µM
- TGI (HCC-2998 colon): > 100 µM
- TGI (HCT-116 colon): > 100 µM
- TGI (HCT-15 colon): > 100 µM
- TGI (HL-60(TB) leukemia): > 100 µM
- TGI (HOP-62 NSCLC): > 100 µM
- TGI (HOP-92 NSCLC): > 100 µM
- TGI (HS 578T breast): > 100 µM
- TGI (HT29 colon): > 100 µM
- TGI (IGROV1 ovarian): > 100 µM
- TGI (K-562 leukemia): > 100 µM
- TGI (KM12 colon): > 100 µM
- TGI (LOX IMVI melanoma): > 100 µM
- TGI (M14 melanoma): > 100 µM
- TGI (MCF7 breast): > 100 µM
- TGI (MDA-MB-231 breast): > 100 µM
- TGI (MDA-MB-435): > 100 µM
- TGI (MOLT-4 leukemia): > 100 µM
- TGI (NCI-H226 lung): > 100 µM
- TGI (NCI-H23 lung): > 100 µM
- TGI (NCI-H460 lung): > 100 µM
- TGI (NCI-H522 lung): > 100 µM
- TGI (NCI/ADR-RES ovarian): > 100 µM
- TGI (OVCAR-3 ovarian): > 100 µM
- TGI (OVCAR-4 ovarian): > 100 µM
- TGI (OVCAR-5 ovarian): > 100 µM
- TGI (OVCAR-8 ovarian): > 100 µM
- TGI (PC-3 prostate): > 100 µM
- TGI (RPMI-8226 leukemia): > 100 µM
- TGI (RXF 393 renal): > 100 µM
- TGI (SF-268 CNS): > 100 µM
- TGI (SF-295 CNS): > 100 µM
- TGI (SF-539 CNS): > 100 µM
- TGI (SK-MEL-2 melanoma): > 100 µM
- TGI (SK-MEL-28 melanoma): > 100 µM
- TGI (SK-MEL-5 melanoma): > 100 µM
- TGI (SK-OV-3 ovarian): > 100 µM
- TGI (SN12C renal): > 100 µM
- TGI (SNB-19 CNS): > 100 µM
- TGI (SNB-75 CNS): > 100 µM
- TGI (SR leukemia): > 100 µM
- TGI (SW-620 colon): > 100 µM
- TGI (T-47D breast): > 100 µM
- TGI (TK-10 renal): > 100 µM
- TGI (U251 CNS): > 100 µM
- TGI (UACC-257 melanoma): > 100 µM
- TGI (UACC-62 melanoma): > 100 µM
- TGI (UO-31 renal): > 100 µM
